Results: PMC6792352, “Limited Chemical Structural Diversity Found to Modulate Thyroid Hormone Receptor in the Tox21 Chemical Library” (Environmental Health Perspectives, 2019)
Counter-ions that a name gives are not always drawn.

Assay: in vitro
Details: rat, gh3-tre-luc cells, AC50 (uM) modified / 1000

| SMILES | CC50 at 24 h |
| --- | --- |
| C=CC(=O)OCCn1c(=O)n(CCOC(=O)C=C)c(=O)n(CCOC(=O)C=C)c1=O [(2,4,6-Trioxo-1,3,5-triazinane-1,3,5-triyl)triethane-2,1-diyl trisprop-2-enoate] | 4.99 µM |
| CC(C)CCCCCCCOC(=O)c1ccc(C(=O)OCCCCCCCC(C)C)c(C(=O)OCCCCCCCC(C)C)c1 [Triisodecyl trimellitate] | > 80 µM |
| CC(C)OC(=O)CCC(=O)OC(C)C [Dipropan-2-yl butanedioate] | > 90 µM |
| O=S1(=O)c2cccc3cccc(c23)N1CCCN1CCN(c2ccc(F)cc2)CC1 [Fananserin] | > 50 µM |
| CCc1c(C(=O)NN2CCCCC2)nn(-c2ccc(Cl)cc2Cl)c1-c1ccc(Br)cc1 [Surinabant] | 12.3 µM |
| C=C1CC[C@H](O)C/C1=C/C=C1\CCC[C@]2(C)[C@@H]([C@H](C)CCCC(C)(C)O)CC[C@@H]12 [Calcifediol] | 11.5 µM |
| O=C1CC2(CCCC2)CC(=O)N1CCCCN1CCN(c2ncccn2)CC1 [Buspirone] | 89.7 µM |
| CCCCCOC(=O)CCCC [Pentyl valerate] | > 90 µM |
| CC(=O)Oc1c(C)cc(OCC(O)CNC(C)C)c(C)c1C (stereo not shown) [Metipranolol] | > 50 µM |
| CCO[Si](C)(OCC)OCC [Triethoxymethylsilane] | > 90 µM |
| CO[C@]12CC[C@@]3(C[C@@H]1[C@](C)(O)C(C)(C)C)[C@H]1Cc4ccc(O)c5c4[C@@]3(CCN1CC1CC1)[C@H]2O5 [Buprenorphine hydrochloride] | 23.1 µM |
| OCCCCCCCl [6-Chlorohexan-1-ol] | > 100 µM |
| CCOC(=O)C(C)C(C)=O (stereo not shown) [Ethyl-2-methyl acetoacetate] | > 90 µM |
| Cl/C(=C\n1cncn1)c1ccc(Cl)cc1Cl [Loreclezole hydrochloride] | > 50 µM |
| CC(C)CCCC(C)CCO (stereo not shown) [3,7-Dimethyloctan-1-ol] | > 90 µM |
| CC=C(C)C#N [2-Methyl-2-butenenitrile] | > 90 µM |
| CC(C)N(Cc1ccccc1)C(=O)C(C)(C)C [Butam] | > 90 µM |
| COC(=O)NC(=S)Nc1ccccc1NC(=S)NC(=O)OC [Thiophanate-methyl] | > 90 µM |
| O=C1OCCO1 [1,3-Dioxolan-2-one] | > 100 µM |
| C=CC(=O)OCCCCCC [Hexyl acrylate] | > 90 µM |
| CCCCNC1CC(C)(C)NC(C)(C)C1 [N-Butyl-2,2,6,6-tetramethylpiperidin-4-amine] | > 90 µM |
| CCN(CC)C(C)C(=O)c1ccccc1 (stereo not shown) [Diethylpropion hydrochloride] | > 50 µM |
| Cc1[nH]nc2c1N=C(c1ccccc1Cl)c1cc([N+](=O)[O-])ccc1N2 [PharmaGSID_48505] | 39.4 µM |
| CCCCCCCCCCCCc1ccccc1 [Dodecylbenzene] | > 90 µM |
| Cc1nnc2n1-c1ccc(Cl)cc1C(c1ccccc1Cl)=NC2 [Triazolam] | > 50 µM |

| SMILES | CC50 at 24 h |
| --- | --- |
| CC(=O)O[C@H]1C[C@H](O[C@H]2[C@@H](O)C[C@H](O[C@H]3[C@@H](O)C[C@H](O[C@H]4CC[C@@]5(C)[C@H](CC[C@@H]6[C@@H]5C[C@@H](O)[C@]5(C)[C@@H](C7=CC(=O)OC7)CC[C@]65O)C4)O[C@@H]3C)O[C@@H]2C)O[C@H](C)[C@H]1O[C@@H]1O[C@H](CO)[C@@H](O)[C@H](O)[C@H]1O [Lanatoside C] | > 50 µM |
| CC1(C)[C@H]2CC[C@](C)(C2)[C@H]1O [(1R)-endo-(+)-Fenchyl alcohol] | > 90 µM |
| Cc1ccc(C(C)c2ccc(C)c(C)c2)cc1C [1,1-Bis(3,4-dimethylphenyl)ethane] | > 90 µM |
| CCCCCCCCCCCCCC[N+](C)(C)C [Myristyltrimethylammonium chlorideN,N,N-Trimethyltetradecan-1-aminium chloride] | 9.07 µM |
| CCOC(=O)COc1ccc2c(c1)C[C@@H](NC[C@H](O)c1cccc(Cl)c1)CC2 [SR58611] | 24.3 µM |
| COc1cc(NS(=O)(=O)c2ccc(N)cc2)nc(C)n1 [Sulfamethomidine] | > 50 µM |
| O=C(Cc1cccs1)N[C@@H]1C(=O)N2C(C(=O)[O-])=C(C[n+]3ccccc3)CS[C@H]12 [Cephaloridine] | > 50 µM |
| O=C(C(=O)c1ccco1)c1ccco1 [alpha-Furil] | > 90 µM |
| NCCCC[C@H](N)C(=O)O [Lysine] | > 50 µM |
| C=CCCCCCCCC [1-Decene] | > 90 µM |
| CCCOC(C(=O)OC1CCN(C)CC1)(c1ccccc1)c1ccccc1 [Propiverine hydrochloride] | 14.7 µM |
| CC(=O)Nc1cccc(C)c1 [N-Acetyl-m-toluidine] | > 90 µM |
| CCC(CO)(CO)[N+](=O)[O-] [2-Ethyl-2-nitro-1,3-propanediol] | > 90 µM |
| CCCCCCCCCCCCCCCS(=O)(=O)Oc1ccccc1 [C10-21 alkanesulfonic acids phenyl esters] | > 50 µM |
| N=C(Nc1ccccc1)Nc1ccccc1 [1,3-Diphenylguanidine] | > 50 µM |
| O=C(CN1CCN(Cc2ccc3c(c2)OCO3)CC1)N1c2ccccc2Sc2ccccc21 [Fenoverine] | 23.4 µM |
| CN1C(=O)c2ccccc2C1=O [N-Methylphthalimide] | > 90 µM |
| CC(c1ccc(O)cc1)c1ccc(O)cc1 [Bisphenol E] | > 90 µM |
| CCCCCCCCCCC=O [Undecanal] | > 90 µM |
| CCN1CCOCC1 [N-Ethylmorpholine] | > 90 µM |
| N[C@@H](CS)C(=O)O [l-Cysteine hydrochloride] | > 90 µM |
| CC(=O)[C@H]1CC[C@H]2[C@@H]3C[C@H](C)C4=CC(=O)CC[C@]4(C)[C@H]3[C@@H](O)C[C@]12C [Medrysone] | > 20 µM |
| O=C=Nc1cccc(C(F)(F)F)c1 [3-(Trifluoromethyl)phenyl isocyanate] | 49 µM |
| COc1nc(C)nc(N)n1 [2-Methyl-4-amino-6-methoxy-s-triazine] | > 90 µM |
| CC(C)OC(C)C [Isopropyl ether] | > 100 µM |

| SMILES | CC50 at 24 h |
| --- | --- |
| CC1C2CC(CC2C2CCCC(O)C2)C1(C)C (stereo not shown) [3-(5,5,6-Trimethylbicyclo[2.2.1]hept-2-yl)cyclohexanol] | 54.6 µM |
| CCCCCCC(C)O (stereo not shown) [2-Octanol] | > 90 µM |
| CCOC(=O)/C=C(C)/C=C/C=C(C)/C=C/c1c(C)cc(OC)c(C)c1C [Etretinate] | > 50 µM |
| Cn1c(CCCC(=O)O)nc2cc(N(CCCl)CCCl)ccc21 [Bendamustine] | > 50 µM |
| NCC(O)CC(=O)O (stereo not shown) [4-Amino-3-hydroxybutyric acid] | > 50 µM |
| CCCCCCCCCC(=O)N(C)C [N,N-Dimethyldecanamide] | > 90 µM |
| COc1ccc(C(=O)c2ccccc2)c(O)c1 [2-Hydroxy-4-methoxybenzophenone] | > 50 µM |
| CC(=O)Nc1ccc(C)c(Cl)c1 [N-(3-Chloro-4-methylphenyl)acetamide] | > 90 µM |
| CN1CCN(c2c(F)cc3c(=O)c(C(=O)O)cn4c3c2SCC4)CC1 [Rufloxacin hydrochloride] | > 50 µM |
| CC(C)=CC1C(C(=O)OC(C#N)c2cccc(Oc3ccccc3)c2)C1(C)C (stereo not shown) [Cyphenothrin] | > 90 µM |
| O=C[C@H](O)[C@@H](O)[C@@H](O)[C@H](O)CO [Galactose] | > 50 µM |
| N#Cc1ccc(C2CCCc3cncn32)cc1 (stereo not shown) [Fadrozole hydrochloride] | > 40 µM |
| CCN(C=O)CC [Diethylformamide] | > 90 µM |
| CO/N=C1\CN(c2nc3c(cc2F)c(=O)c(C(=O)O)cn3C2CC2)CC1CN (stereo not shown) [Gemifloxacin mesylate] | > 50 µM |
| COc1cc([C@H]2Oc3cc([C@H]4Oc5cc(O)cc(O)c5C(=O)[C@@H]4O)ccc3O[C@@H]2CO)ccc1O [Silybin] | > 90 µM |
| CC1(C)[C@H](C(=O)OCc2coc(Cc3ccccc3)c2)[C@@H]1/C=C1\CCSC1=O [Kadethrin] | > 90 µM |
| C=CCOC(=O)/C=C\C(=O)OCC=C [Diprop-2-en-1-yl (2Z)-but-2-enedioate] | > 90 µM |
| O=S1(=O)CC(Cl)(Cl)C(Cl)(Cl)C1 [3,3,4,4-Tetrachlorotetrahydrothiophene 1,1-dioxide] | 1.02 µM |
| CCN(CC)CCOC(=O)c1cccnc1 [Nicametate citrate] | > 50 µM |
| OCC(CO)(CO)CO [Pentaerythritol] | > 100 µM |
| CN1CCC(O)(c2ccc(F)cc2)C(C(=O)c2ccc(F)cc2)C1 (stereo not shown) [Flazalone] | 19.6 µM |
| COc1ccc(-c2cc(=S)ss2)cc1 [Anethole trithione] | > 50 µM |
| O=C(O)c1cc(C(=O)O)cc([N+](=O)[O-])c1 [5-Nitroisophthalic acid] | > 90 µM |
| CN(C)CCCNCCCN [Dimethyldipropylenetriamine] | > 90 µM |

Same assay, conditions: rat, gh3-tre-luc cells, AC50 (uM) modified / 1000, Tox21_110001=Tox21_112150; viability, 1 nM T3 present, 24 h

| SMILES | CC50 at 24 h |
| --- | --- |
| CCS(=O)(=O)C(C)(C)S(=O)(=O)CC [Sulfonmethane] | > 50 µM |

Same assay, conditions: rat, gh3-tre-luc cells, AC50 (uM) modified / 1000, Tox21_110001=Tox21_201305; viability, 1 nM T3 present, 24 h

| SMILES | CC50 at 24 h |
| --- | --- |
| O=C/C(Cl)=C(/Cl)C(=O)O [Mucochloric acid] | 74 µM |

Same assay, conditions: rat, gh3-tre-luc cells, AC50 (uM) modified / 1000, Tox21_110001=Tox21_201634; viability, 1 nM T3 present, 24 h

| SMILES | CC50 at 24 h |
| --- | --- |
| CCOP(=S)(OCC)SCSC(C)(C)C [Terbufos] | > 90 µM |

Same assay, conditions: rat, gh3-tre-luc cells, AC50 (uM) modified / 1000, Tox21_110001=Tox21_201934; viability, 1 nM T3 present, 24 h

| SMILES | CC50 at 24 h |
| --- | --- |
| CCCCSP(=O)(SCCCC)SCCCC [Tribufos] | > 90 µM |

Same assay, conditions: rat, gh3-tre-luc cells, AC50 (uM) modified / 1000, Tox21_110001=Tox21_300689; viability, 1 nM T3 present, 24 h

| SMILES | CC50 at 24 h |
| --- | --- |
| O=C(Cc1ccccc1)OCCc1ccccc1 [2-Phenylethyl phenylacetate] | > 90 µM |

Same assay, conditions: rat, gh3-tre-luc cells, AC50 (uM) modified / 1000, Tox21_110001=Tox21_301003; viability, 1 nM T3 present, 24 h

| SMILES | CC50 at 24 h |
| --- | --- |
| Cc1nc(N(C)C)nc(OC(=O)N(C)C)c1C [Pirimicarb] | > 90 µM |

Same assay, conditions: rat, gh3-tre-luc cells, AC50 (uM) modified / 1000, Tox21_110001=Tox21_301105; viability, 1 nM T3 present, 24 h

| SMILES | CC50 at 24 h |
| --- | --- |
| Nc1nc(N)nc(Cl)n1 [2-Chloro-4,6-diamino-1,3,5-triazine] | > 90 µM |

Same assay, conditions: rat, gh3-tre-luc cells, AC50 (uM) modified / 1000, Tox21_110001=Tox21_302857; viability, 1 nM T3 present, 24 h

| SMILES | CC50 at 24 h |
| --- | --- |
| O=C/C(Cl)=C(/Cl)C(=O)O [Mucochloric acid] | 63.6 µM |
